Molecular target: GST tagged truncated human mutant G2019S LRRK2 (Homo sapiens (Human), UniProt Q5S007, G2019S)
Assay: LRRK2 Km ATP LanthaScreen Assay
Type: biochemical
Settings: 134 μM ATP (Km ATP), LRRKtide substrate, negative log of mean IC50 (molar)
Method in brief: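 Truncated GST-tagged G2019S LRRK2 (1.25 nM enzyme solution) was preincubated with compound for 15 min at rt, then reacted for 90 min with fluorescein-LRRKtide and 134 μM ATP (Km) in Tris pH 8.5/MgCl2 buffer. After an EDTA stop, TR-FRET used a Tb anti-pERM antibody (520/495 nm ratio). IC50 came from a 4-parameter fit and is reported as pIC50, mean of several runs.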

Chain of GST tagged truncated human mutant G2019S LRRK2 (Q5S007 970-2527 G2019S): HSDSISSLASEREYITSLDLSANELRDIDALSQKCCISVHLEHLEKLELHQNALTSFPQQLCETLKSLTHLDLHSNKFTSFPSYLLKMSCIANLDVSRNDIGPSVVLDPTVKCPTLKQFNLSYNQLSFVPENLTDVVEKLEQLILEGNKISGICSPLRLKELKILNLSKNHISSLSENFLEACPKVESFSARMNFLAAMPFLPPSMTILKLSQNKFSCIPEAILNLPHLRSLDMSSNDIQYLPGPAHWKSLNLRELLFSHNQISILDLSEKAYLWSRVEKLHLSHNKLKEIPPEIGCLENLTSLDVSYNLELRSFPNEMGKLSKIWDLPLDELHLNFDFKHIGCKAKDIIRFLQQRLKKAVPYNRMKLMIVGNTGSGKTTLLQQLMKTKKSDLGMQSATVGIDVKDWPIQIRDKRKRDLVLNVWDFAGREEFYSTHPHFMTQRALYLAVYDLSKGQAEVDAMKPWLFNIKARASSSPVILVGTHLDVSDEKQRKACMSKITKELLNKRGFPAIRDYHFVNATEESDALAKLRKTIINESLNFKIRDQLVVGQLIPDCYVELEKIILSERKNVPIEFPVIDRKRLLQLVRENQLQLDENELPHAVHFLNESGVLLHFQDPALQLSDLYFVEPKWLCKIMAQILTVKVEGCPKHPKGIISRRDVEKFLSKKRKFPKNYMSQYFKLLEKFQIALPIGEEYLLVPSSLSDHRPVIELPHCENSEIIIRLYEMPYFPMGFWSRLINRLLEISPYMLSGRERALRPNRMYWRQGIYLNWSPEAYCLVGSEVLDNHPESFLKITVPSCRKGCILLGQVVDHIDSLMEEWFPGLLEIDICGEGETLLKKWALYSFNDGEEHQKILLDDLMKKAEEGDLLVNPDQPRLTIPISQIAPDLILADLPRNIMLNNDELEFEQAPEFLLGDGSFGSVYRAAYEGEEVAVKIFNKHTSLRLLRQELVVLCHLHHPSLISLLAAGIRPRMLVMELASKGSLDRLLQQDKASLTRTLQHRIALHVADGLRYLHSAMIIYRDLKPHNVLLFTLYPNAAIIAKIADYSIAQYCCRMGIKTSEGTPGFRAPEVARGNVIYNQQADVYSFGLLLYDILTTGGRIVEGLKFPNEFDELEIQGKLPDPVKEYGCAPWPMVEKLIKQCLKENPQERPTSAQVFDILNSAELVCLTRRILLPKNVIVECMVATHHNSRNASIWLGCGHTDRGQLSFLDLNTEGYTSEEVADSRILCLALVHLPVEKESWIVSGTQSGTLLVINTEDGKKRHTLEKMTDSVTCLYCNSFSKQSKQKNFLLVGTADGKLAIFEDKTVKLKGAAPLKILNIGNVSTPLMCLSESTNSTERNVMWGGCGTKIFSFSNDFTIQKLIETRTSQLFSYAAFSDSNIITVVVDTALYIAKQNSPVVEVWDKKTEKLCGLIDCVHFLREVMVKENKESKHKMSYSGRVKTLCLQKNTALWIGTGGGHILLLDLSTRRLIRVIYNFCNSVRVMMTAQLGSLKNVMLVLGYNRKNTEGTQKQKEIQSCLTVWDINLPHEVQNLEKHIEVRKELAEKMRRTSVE

Point of comparison: `Cc1nn(C)cc1NC(=O)c1csc(-c2cn[nH]c2)n1` [Example 1-41, N-(1,3-dimethyl-1H-pyrazol-4-yl)-2-(1H-pyrazol-4-yl)-1,3-thiazole-4-carboxamide], “LRRK2 pIC50” value 7.23. Against it:
- COc1nn(Cc2nnc3n2CCCCC3)cc1NC(=O)c1csc(-c2cn[nH]c2)n1 [Example 1-28, N-[3-methoxy-1-(6,7,8,9-tetrahydro-5H-[1,2,4]triazolo[4,3-a]azepin-3-ylmethyl)-1H-pyrazol-4-yl]-2-(1H-pyrazol-4-yl)-1,3-thiazole-4-carboxamide] — lower, 6.95
- O=C(Nc1cnn(-c2ccccc2)c1)c1csc(-c2cn[nH]c2)n1 [Example 1-24, N-(1-phenyl-1H-pyrazol-4-yl)-2-(1H-pyrazol-4-yl)-1,3-thiazole-4-carboxamide] — higher, 7.56
- COc1nn(CC(F)(F)F)cc1NC(=O)c1csc(-c2cn[nH]c2)n1 [Example 1-2, N-(3-Methoxy-1-(2,2,2-trifluoroethyl)-1H-pyrazol-4-yl)-2-(1H-pyrazol-4-yl)thiazole-4-carboxamide] — higher, 7.46
- Cn1nccc1-c1cccc(C(=O)Nc2cnn(CC3CCC3)c2)n1 [Example 9-20, N-[1-(cyclobutylmethyl)-1H-pyrazol-4-yl]-6-(1-methyl-1H-pyrazol-5-yl)pyridine-2-carboxamide] — lower, 5.07
- O=C(Nc1cnn(C2CCOCC2)c1)c1csc(-c2cn[nH]c2)n1 [Example 7-10, 2-(1H-pyrazol-4-yl)-N-[1-(tetrahydro-2H-pyran-4-yl)-1H-pyrazol-4-yl]-1,3-thiazole-4-carboxamide] — within 0.2 log units, 7.37
- Cn1ccc(-c2cccc(C(=O)Nc3cnn(CC4CCC4)c3)n2)n1 [Example 9-22, N-[1-(cyclobutylmethyl)-1H-pyrazol-4-yl]-6-(1-methyl-1H-pyrazol-3-yl)pyridine-2-carboxamide] — lower, 6.53
- CC1(Cn2cc(NC(=O)c3csc(-c4cn[nH]c4)n3)c(C(F)F)n2)COC1 [Example 7-42, N-{3-(difluoromethyl)-1-[(3-methyloxetan-3-yl)methyl]-1H-pyrazol-4-yl}-2-(1H-pyrazol-4-yl)-1,3-thiazole-4-carboxamide] — lower, 6.51
- O=C(Nc1cnn(C2CCC2)c1)c1ccn(-c2ncccn2)n1 [Example 4-11, N-(1-cyclobutyl-1H-pyrazol-4-yl)-1-pyrimidin-2-yl-1H-pyrazole-3-carboxamide] — lower, 5.71
- O=C(Nc1cnn(CC2CCC2)c1)c1cccc(-c2cccnc2F)n1 [Example 9-24, N-[1-(cyclobutylmethyl)-1H-pyrazol-4-yl]-2′-fluoro-2,3′-bipyridine-6-carboxamide] — within 0.2 log units, 7.16
- Cn1cc(-c2nccc(C(=O)Nc3cnn(C4CCC4)c3)n2)cn1 [Example 9-23, N-(1-cyclobutyl-1H-pyrazol-4-yl)-2-(1-methyl-1H-pyrazol-4-yl)pyrimidine-4-carboxamide] — higher, 7.47
- COc1nn(CC2CCOCC2)cc1NC(=O)c1csc(-c2cn[nH]c2)n1 [Example 7-16, N-[3-methoxy-1-(tetrahydro-2H-pyran-4-ylmethyl)-1H-pyrazol-4-yl]-2-(1H-pyrazol-4-yl)-1,3-thiazole-4-carboxamide] — within 0.2 log units, 7.25
- O=C(Nc1cnn(C2CCC2)c1)c1csc(-c2cnn3c2CCCC3)n1 [Example 9-27, N-(1-cyclobutyl-1H-pyrazol-4-yl)-2-(4,5,6,7-tetrahydropyrazolo [1,5-a]pyridin-3-yl)-1,3-thiazole-4-carboxamide] — higher, 8.25
- CC(C)Oc1nn(C)cc1NC(=O)c1csc(-c2cn[nH]c2)n1 [Example 1-16, N-[1-methyl-3-(1-methylethoxy)-1H-pyrazol-4-yl]-2-(1H-pyrazol-4-yl)-1,3-thiazole-4-carboxamide] — higher, 7.43

Same assay, conditions: 134 μM ATP (Km ATP), LRRKtide substrate, negative log of mean IC50 (molar), read-out: LRRK2 pIC50 (converted)

Work on `O=C(Nc1cnn(C2CCC2)c1)c1csc(-n2cccn2)n1` [Example 11-1, N-(1-Cyclobutyl-1H-pyrazol-4-yl)-2-(1H-pyrazol-1-yl)thiazole-4-carboxamide] yielded an IC50 of 100 nM.

— patent publication US20240174679A1, “HETEROAROYL AMIDES AS LRRK2 INHIBITORS, PHARMACEUTICAL COMPOSITIONS, AND USES THEREOF” (MERCK SHARP & DOHME LLC, priority 2021, published 2024)
